Test results from US10851108B2, “Substituted bicyclic heterocyclic compounds” (BRISTOL-MYERS SQUIBB COMPANY, priority 2016, dated 2020).

Tests used:
Format in all cases: cell-based
[1] = molecular target: hERG (Homo sapiens (Human), UniProt Q12809); assay: hERG Manual Patch Clamp Assay; conditions: human, HEK 293 cells stably expressing hERG channels; for inhibition at 1 µM: pH 7.4, 1 μM, read-out: hERG EP IC50 (% Inhibition at 1 μM); for inhibition at 3 µM: pH 7.4, 3 uM, read-out: hERG EP % Inhibition at 3 uM; for inhibition at 10 µM: pH 7.4, 10 uM, read-out: hERG EP % Inhibition at 10 uM
Method: hERG Manual Patch Clamp Assay
hERG electrophysiology assay: The experimental compounds were assessed for hERG activity on HEK 293 cells stably expressing hERG channels using patch clamp technique. Coverslips plated with hERG expressing cells were placed in the experimental chamber and were perfused with a solution composed of (in mM): 140 NaCl, 4 KCl, 1.8 CaCl2, 1 MgCl2, 10 Glucose, 10 HEPES (pH 7.4, NaOH) at room temperature. Borosilicate patch pipettes had tip resistances of 2-4 Mohms when filled with an internal solution containing: 130 KCl, 1 MgCl2, 1 CaCl2, 10 EGTA, 10 HEPES, 5 ATP-K2 (pH 7.2, KOH). The cells were clamped at −80 mV in whole cell configuration using an Axopatch 200B (Axon instruments, Union City, Calif.) patch clamp amplifier controlled by pClamp (Axon instruments) software. Upon formation of a gigaseal, the following voltage protocol was repeatedly (0.05 Hz) applied to record tail currents: depolarization step from −80 mV to +20 mV for 2 seconds followed by a hyperpolarization step to −65 mV (3 seconds) to elicit tail currents. Compounds were applied after stabilization of tail current. First, tail currents were recorded in presence of extracellular solution alone (control) and subsequently, in extracellular solution containing increasing compound concentrations. Each compound concentration was applied for 2-5 minutes. The percentage inhibition at each concentration was calculated as reduction in peak tail current with respect to the peak tail current recorded in the presence of control solution. Data analysis was performed in a custom made template. The percent inhibitions at different concentrations were plotted to obtain a concentration response curve, which was subsequently fitted with a four parameter equation to calculate hERG IC50 value.
A lower hERG % Inhibition value indicates less inhibition of the hERG current

[2] = molecular target: hROMK (Homo sapiens (Human), UniProt P48048); assay: ROMK Manual Patch Clamp Assay; conditions: whole-cell manual patch clamp, hROMK expressing cells; read-out: hROMK EP IC50
Method: ROMK Manual Patch Clamp Assay
Cell culture conditions: Cells were maintained in conditions similar to those for Thallium flux assay. hROMK channel expression was induced by adding 0.6 μg/ml of Doxycycline 16-24 hrs prior to the experiments. On the day of experiment, the cells were dissociated using Versene, resuspended in growth media and plated onto coverslips 15 minutes prior to use.
Electrophysiology: The coverslip plated with cells was placed in the experiment chamber perfused with bath solution composed of (in mM): 135 NaCl, 5 KCl, 2 CaCl2, 1 MgCl2, 10 HEPES, 5 Glucose (pH 7.4). Patch pipettes with resistance between 2-5 Megaohms, when filled with a solution containing (in mM): 135 KCl, 1 EGTA, 1 MgCl2, 10 HEPES, 2 Na2ATP (pH 7.3), were used to form gigaseals. The cells were voltage clamped at −75 mV in whole-cell configuration using an Axopatch 200b or Multiclamp 700b (Molecular Devices) amplifier controlled by pClamp Software (Molecular Devices). The current was recorded by applying a voltage step to −120 mV every 10 seconds. For each compound, 4-6 concentrations were applied for 3-8 minutes in a successive manner starting with the lowest concentration. At the end of the experiment, the cells were perfused with bath solution containing 2 mM Ba^2+ to isolate the contribution of hROMK current.
Data analysis: Raw current values (5 traces each for control, different compound concentration and Ba^2+ treatment groups) were exported from Clampfit into Microsoft Excel where the current remaining after application of Ba^2+ was subtracted from raw current to obtain hROMK specific current. These hROMK current values (average of 5 traces for each group) were then imported into a custom made template to generate a concentration response curve, which was subsequently fitted with a four parameter equation to calculate the IC50 value of the test compound.
The data in Table 4 is reported with two significant figures.

[3] = molecular target: hROMK (human Kir1.1) (Homo sapiens (Human), UniProt P48048); assay: Thallium Flux Assay; conditions: CHO T-Rex hROMK stable cell line, 10-point concentration response; read-out: hROMK Th+ Flux IC50
Procedure, shortened: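 CHO T-Rex cells, doxycycline-induced (0.5 μg/ml) one day before, FluxOR dye-loaded; compounds 30 min, then Tl+ stimulus (final 3 mM Tl2SO4, 0.15 mM K2SO4) with ouabain in chloride-free buffer. Fluorescence 488/525 nm for 90 s; IC50 from 10-point curve; DMSO 0.5 or 1%.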

Chain of hROMK (human Kir1.1) (P48048 whole entry): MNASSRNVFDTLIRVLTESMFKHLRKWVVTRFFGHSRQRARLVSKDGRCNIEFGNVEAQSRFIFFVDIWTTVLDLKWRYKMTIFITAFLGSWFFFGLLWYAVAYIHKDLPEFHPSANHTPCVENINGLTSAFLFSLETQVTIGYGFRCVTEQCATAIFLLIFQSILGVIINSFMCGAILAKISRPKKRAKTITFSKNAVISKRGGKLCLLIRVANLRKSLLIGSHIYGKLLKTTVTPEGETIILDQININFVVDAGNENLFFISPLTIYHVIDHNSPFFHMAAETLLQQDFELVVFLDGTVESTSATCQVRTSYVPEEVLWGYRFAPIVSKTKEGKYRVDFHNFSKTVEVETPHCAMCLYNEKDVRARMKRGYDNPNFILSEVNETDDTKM
Chain of hROMK (P48048 whole entry): as above
Chain of hERG (Q12809 whole entry): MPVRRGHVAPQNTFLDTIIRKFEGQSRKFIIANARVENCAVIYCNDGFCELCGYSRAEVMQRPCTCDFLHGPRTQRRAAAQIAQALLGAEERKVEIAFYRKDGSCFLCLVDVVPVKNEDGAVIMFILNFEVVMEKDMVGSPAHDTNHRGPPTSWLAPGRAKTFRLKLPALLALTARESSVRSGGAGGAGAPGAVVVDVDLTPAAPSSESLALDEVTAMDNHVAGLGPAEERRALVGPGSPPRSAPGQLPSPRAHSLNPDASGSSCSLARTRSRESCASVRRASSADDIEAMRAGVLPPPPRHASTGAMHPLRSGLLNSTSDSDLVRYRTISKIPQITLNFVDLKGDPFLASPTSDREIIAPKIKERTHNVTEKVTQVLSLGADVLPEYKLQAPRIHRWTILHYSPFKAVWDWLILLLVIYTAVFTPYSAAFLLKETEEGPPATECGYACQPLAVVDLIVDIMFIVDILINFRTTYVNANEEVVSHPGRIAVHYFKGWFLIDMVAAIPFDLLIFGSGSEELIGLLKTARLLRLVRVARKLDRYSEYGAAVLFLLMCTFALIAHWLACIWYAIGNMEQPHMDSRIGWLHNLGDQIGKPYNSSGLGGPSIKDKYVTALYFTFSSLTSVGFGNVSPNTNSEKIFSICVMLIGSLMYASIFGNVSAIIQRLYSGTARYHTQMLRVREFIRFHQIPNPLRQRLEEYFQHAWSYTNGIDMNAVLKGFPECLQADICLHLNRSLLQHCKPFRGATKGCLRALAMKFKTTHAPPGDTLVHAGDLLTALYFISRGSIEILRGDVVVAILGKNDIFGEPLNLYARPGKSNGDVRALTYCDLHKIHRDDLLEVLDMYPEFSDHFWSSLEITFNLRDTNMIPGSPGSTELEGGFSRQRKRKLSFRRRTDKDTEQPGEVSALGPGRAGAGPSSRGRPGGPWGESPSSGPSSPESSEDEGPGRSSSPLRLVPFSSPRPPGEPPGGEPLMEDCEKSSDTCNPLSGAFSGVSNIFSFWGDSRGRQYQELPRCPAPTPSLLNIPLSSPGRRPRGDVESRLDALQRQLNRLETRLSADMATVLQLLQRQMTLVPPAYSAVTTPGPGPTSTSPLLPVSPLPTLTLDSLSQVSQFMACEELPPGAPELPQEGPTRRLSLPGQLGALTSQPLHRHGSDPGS

SMILES | IC50 [2] | IC50 [3] | inhibition at 1 µM [1] | inhibition at 3 µM [1] | inhibition at 10 µM [1]
Cc1c(C(O)CN2CCc3nc(-n4ncc5ncccc54)ncc3C2)ccc2c1COC2=O (single isomer, unassigned) [Example 41-I, 5-(2-(2-(1H-pyrazolo[4,3-b]pyridin-1-yl)-7,8-dihydropyrido[4,3-d]pyrimidin-6(5H)-yl)-1-hydroxyethyl)-4-methylisobenzofuran-1(3H)-one] | 23 nM | 60 nM | 11% |  | 
Cc1c(C(O)CN2CCc3nc(-n4cnc5ncccc54)ncc3C2)ccc2c1COC2=O (single isomer, unassigned) [Example 53-I, 5-(2-(2-(1H-imidazo[4,5-b]pyridin-1-yl)-7,8-dihydropyrido[4,3-d]pyrimidin-6(5H)-yl)-1-hydroxyethyl)-4-methylisobenzofuran-1(3H)-one] | 87 nM | 135 nM | 13% | 34% | 
Cc1c(C(O)CN2CCc3nc(-n4cc(C#N)cn4)ncc3C2)ccc2c1COC2=O (single isomer, unassigned) [Example 56-I, 1-(6-(2-hydroxy-2-(4-methyl-1-oxo-1,3-dihydroisobenzofuran-5-yl)ethyl)-5,6,7,8-tetrahydropyrido[4,3-d]pyrimidin-2-yl)-1H-pyrazole-4-carbonitrile] | 12 nM | 44 nM | 35% | 65% | 82%
Cc1cn(-c2ncc3c(n2)CCN(CC(O)c2ccc4c(c2C)COC4=O)C3)cn1 (single isomer, unassigned) [Example 58-I, 5-(1-hydroxy-2-(2-(4-methyl-1H-imidazol-1-yl)-7,8-dihydropyrido[4,3-d]pyrimidin-6(5H)-yl)ethyl)-4-methyl isobenzofuran-1(3H)-one] | 13 nM | 62 nM | 9% | 20% | 42%
Cc1c(C(O)CN2CCc3nc(-n4ccnc4)ncc3C2)ccc2c1COC2=O (single isomer, unassigned) [Example 66-I, 5-(2-(2-(1H-imidazol-1-yl)-7,8-dihydro-pyrido[4,3-d]pyrimidin-6(5H)-yl)-1-hydroxyethyl)-4-methylisobenzofuran-1(3H)-one] |  | 362 nM | 6% | 14% | 30%

Continued, in another order:

IC50 [2] | IC50 [3] | SMILES | inhibition at 1 µM [1] | inhibition at 3 µM [1] | inhibition at 10 µM [1]
34 nM | 70 nM | Cc1c(C(O)CN2CCc3nc(-n4ccc5c(C#N)cncc54)ncc3C2)ccc2c1COC2=O (single isomer, unassigned) [Example 42-I, 1-(6-(2-hydroxy-2-(4-methyl-1-oxo-1,3-dihydroisobenzofuran-5-yl)ethyl)-5,6,7,8-tetrahydropyrido[4,3-d]pyrimidin-2-yl)-1H-pyrrolo[2,3-c]pyridine-4-carbonitrile] | 41% |  | 
 | 30 nM | Cc1c(C(O)CN2CCc3nc(-n4nc(C#N)c5ccccc54)ncc3C2)ccc2c1COC2=O (single isomer, unassigned) [Example 60-I, 1-(6-(2-hydroxy-2-(4-methyl-1-oxo-1,3-dihydroisobenzofuran-5-yl)ethyl)-5,6,7,8-tetrahydropyrido[4,3-d]pyrimidin-2-yl)-1H-indazole-3-carbonitrile] | 92% |  | 
 | 31 nM | Cc1c(C(O)CN2CCc3nc(N4CCc5c(C#N)cccc54)ncc3C2)ccc2c1COC2=O (single isomer, unassigned) [Example 65-I, 1-(6-(2-hydroxy-2-(4-methyl-1-oxo-1,3-dihydroisobenzofuran-5-yl)ethyl)-5,6,7,8-tetrahydropyrido[4,3-d]pyrimidin-2-yl)indoline-4-carbonitrile] | 56% |  | 
